Test results taken from patent US12577239B2, “Sulfilimines or sulfoximines containing fungicidal heterocyclic compounds” (PI INDUSTRIES LTD., priority 2019, dated 2026).

tested on: Phytophthora infestans; experiment: microbe, parasite or virus in culture; format: cell-based; details: 168 h, read-out: control compared to the untreated check

| Structure (SMILES) | inhibition of growth at 30 ppm [%] |
| --- | --- |
| CS(=N)(=O)c1cccc(Cl)c1C1CC(c2csc(C3CCN(C(=O)Cn4cc(Cl)cc(C(F)(F)F)c4=O)CC3)n2)=NO1 (centres unmarked) [Compound 1, 5-chloro-1-(2-(4-(4-(5-(2-chloro-6-(S-methylsulfonimidoyl)phenyl)-4,5-dihydroisoxazol-3-yl)thiazol-2-yl)piperidin-1-yl)-2-oxoethyl)-3-(trifluoromethyl)pyridin-2(1H)-one] | ≥ 70 |
| CS(=N)(=O)c1cccc(Cl)c1C1CC(c2csc(C3CCN(C(=O)Cn4cc(C(F)(F)F)cc(Cl)c4=O)CC3)n2)=NO1 (centres unmarked) [Compound 2, 3-chloro-1-(2-(4-(4-(5-(2-chloro-6-(S-methylsulfonimidoyl)phenyl)-4,5-dihydroisoxazol-3-yl)thiazol-2-yl)piperidin-1-yl)-2-oxoethyl)-5-(trifluoromethyl)pyridin-2(1H)-one] | ≥ 70 |
| CS(=N)(=O)c1cccc(Cl)c1C1CC(c2csc(C3CCN(C(=O)Cn4nc(C(F)F)cc4C(F)F)CC3)n2)=NO1 (centres unmarked) [Compound 3, (2-(3-(2-(1-(2-(3,5-bis (difluoromethyl)-1H-pyrazol-1-yl)acetyl)piperidin-4-yl)thiazol-4-yl)-4,5-dihydroisoxazol-5-yl)-3-chlorophenyl) (imino) (methyl)-λ^6-sulfanone] | ≥ 70 |
| Cc1cc(C(F)(F)F)nn1CC(=O)N1CCC(c2nc(C3=NOC(c4c(F)cccc4N=S(C)(C)=O)C3)cs2)CC1 (centres unmarked) [Compound 6, ((3-fluoro-2-(3-(2-(1-(2-(5-methyl-3-(trifluoromethyl)-1H-pyrazol-1-yl)acetyl)piperidin-4-yl)thiazol-4-yl)-4,5-dihydroisoxazol-5-yl)phenyl)imino)dimethyl-λ^6-sulfanone] | ≥ 70 |
| CC(C)S(=N)(=O)c1cccc(Cl)c1C1CC(c2csc(C3CCN(C(=O)Cn4ccnc(C(F)(F)F)c4=O)CC3)n2)=NO1 (centres unmarked) [Compound 64] | ≥ 70 |
| CS(=N)(=O)c1cccc(C#N)c1C1CC(c2csc(C3CCN(C(=O)Cn4nc(C(F)F)cc4C(F)F)CC3)n2)=NO1 (centres unmarked) [Compound 164] | ≥ 70 |
| CS(=N)(=O)c1cccc(Cl)c1C1CC(c2csc(C3CCN(C(=O)Cn4cc(C(F)(F)F)ccc4=O)CC3)n2)=NO1 (centres unmarked) [Compound 169, 1-(2-(4-(4-(5-(2-chloro-6-(S-methylsulfonimidoyl)phenyl)-4,5-dihydroisoxazol-3-yl)thiazol-2-yl)piperidin-1-yl)-2-oxoethyl)-5-(trifluoromethyl)pyridin-2(1H)-one] | ≥ 70 |
| CN=S(C)(=O)c1cccc(Cl)c1C1CC(c2csc(C3CCN(C(=O)Cn4c(C)ccc(C(F)(F)F)c4=O)CC3)n2)=NO1 (centres unmarked) [Compound 174] | ≥ 70 |
